In PubChem BioAssay AID1902 (Broad Institute, 2009):
The source made the active and inactive calls.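 How the source made its calls: active means EC50 no more than a set limit of log units above the highest dose; inactive means the rest.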

Biological target: S. pyogenes SKKanGAS, kanamycin survival, BacTiterGlo, 6 h
Assay: S. pyogenes SKKanGAS kanamycin growth inhibitors – SKKanGAS strain, luminescence, dose confirmation, streptokinase promoter inhibitor project, dose response (AID 1902);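 further: lower survival reflects blocked streptokinase promoter driving kanamycin resistance gene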

Row | Structure (SMILES) | EC50
1 | FC(F)(F)c1cccc(CNC2c3ccccc3-c3ccccc32)c1 | 6.57 µM
2 | COc1ccc(Cn2c(SCc3cc(C)ccc3C)nc3cc(OC)c(OC)cc3c2=N)cc1 | 2.73 µM
3 | COc1cccc(N/N=C/c2cccc(Br)c2O)c1 | 15.6 µM
4 | COC(=O)c1cc(C(=O)Nc2nc3ccccc3[nH]2)cc([N+](=O)[O-])c1 | 8.85 µM
5 | COc1ccc(CN2C(=O)c3ccccc3C(/C=N/OCc3ccc(Cl)cc3)C2=O)cc1 (configuration not stated) | 1.11 µM
6 | O=C(NC(NC(=S)Nc1ccc(Cl)cc1Cl)C(Cl)(Cl)Cl)c1cccc([N+](=O)[O-])c1 (configuration not stated) | 0.99 µM
7 | O=C(Nc1cc([N+](=O)[O-])ccc1O)c1cccc(NC(=O)c2ccco2)c1 | 2.78 µM
8 | Cc1[nH]n(-c2ncc(-c3ccccc3)s2)c(=O)c1C(c1ccc(Br)cc1)C(C#N)C#N (configuration not stated) | 5.83 µM
9 | Cc1cc(/C=C2\SC(=S)N(C)C2=O)c(C)n1-c1ccccc1O | 6.72 µM
10 | CCC1CCCCN1S(=O)(=O)c1ccc(NC(=O)c2nc(S(C)(=O)=O)ncc2Cl)cc1 (configuration not stated) | 9.42 µM
11 | Cc1nn(-c2ccccc2)c(Cl)c1C1C(C#N)=C(N)OC2=C1C(=O)CC(C)(C)C2 (configuration not stated) | 1.45 µM
12 | CCOC(=O)c1cnc(-n2nc(C)cc2C)nc1NNc1cc(C)nc(-c2ccccc2)n1 | 0.237 µM
13 | C=C(C)COc1ccc(-c2[nH]ncc2Oc2ccc(OC)cc2)c(O)c1 | 4.05 µM
14 | CC(=O)c1ccc(N2CCC(c3cc(-c4ccc(Cl)cc4Cl)n[nH]3)CC2)c([N+](=O)[O-])c1 | 2.15 µM
15 | O=C(NC(=S)NNC(=O)c1ccccc1[N+](=O)[O-])c1ccc(Br)cc1 | 2.24 µM
16 | Fc1ccc(CSc2nc3ccccc3[nH]2)c2ccccc12 | 6.11 µM
17 | C/C(=N\Nc1cc(N2CCCCC2)nc(C)n1)c1ccc(Br)cc1 | 4.46 µM
18 | CCOC(=O)c1sc2nc(Cc3ccc(Cl)cc3)[nH]c(=S)c2c1C | 3.21 µM
19 | CCS(=O)(=O)Nc1ccc(-c2cc(-c3ccccc3)c3cc(C)ccc3n2)cc1 | 4.03 µM
20 | O=C(NC(=S)N(CCCCO)C1CCCCC1)c1sc2ccccc2c1Cl | 0.527 µM
21 | Cc1ccc(/C=N/NC(=O)C2=NNC(c3ccccc3)(c3ccccc3)C2)c(O)c1 | 4.01 µM
22 | O=C(CNc1cccc2ccccc12)N/N=C/c1ccc[nH]1 | > 15 µM (inactive)
23 | C/C(=N\NS(=O)(=O)c1ccc(C)cc1)c1ccc(C)o1 | > 15 µM (inactive)
24 | COc1ccccc1Sc1nc(-c2ccccn2)ncc1OC | 14.7 µM
25 | C/C(=N\NC(=O)c1ccc(Cl)c(Cl)c1)c1ccccn1 | 0.063 µM
26 | CC(=O)OCC1=C(C(=O)O)N2C(=O)C(NC(=O)c3ccc(COc4cccc(Cl)c4Cl)o3)C2SC1 (configuration not stated) | 2.79 µM

Row | Structure (SMILES) | EC50
27 | CCN1/C(=C/c2ccc3ccccc3[n+]2CC)C=Cc2ccccc21 | 6.08 µM
28 | CCC[C@@H]1C[C@@]1(CCC)[C@@H](NP(=O)(c1ccccc1)c1ccccc1)c1ccc(C(=O)OC)cc1 | 2.14 µM
29 | COc1ccc(-n2c(SCC(=O)Nc3ccccc3)nc(O)cc2=O)cc1 | 15.2 µM
30 | COc1ccc(C(=O)NC(=S)N(Cc2ccccc2)Cc2ccccc2)cc1 | 0.674 µM
31 | Cc1ccc(C(=O)n2c(N)nc3ccccc32)cc1 | 4.29 µM
32 | COc1ccc([N+](=O)[O-])cc1NC(=S)NC(NC(=O)C(c1ccccc1)c1ccccc1)C(Cl)(Cl)Cl (configuration not stated) | 12 µM
33 | CC(C)C[C@H](NC(=O)c1nc[nH]c1C(=O)NC1CCN(C(=O)OC(C)(C)C)CC1)C(=O)OCc1ccccc1 | 5.47 µM
34 | CSc1nsc2nc(=O)c(/C=C3\C=Nc4ccccc43)c(N)n12 | 3.57 µM
35 | NC(=O)c1cc(C(=O)Cc2ccccc2)c[nH]1 | 2.23 µM
36 | Cc1ccc(NC(=O)c2nc[nH]c2C(=O)N[C@@H](C)c2ccccc2)cc1 | 1.13 µM
37 | CCn1c(COc2ccc(C)cc2)nnc1SCc1ccc(C#N)cc1 | > 15 µM (inactive)
38 | Oc1ccc(N=Nc2ccc3c(c2)OCCO3)c2ncccc12 | 0.419 µM
39 | CCc1sc(N(C(=O)Cc2ccccc2)c2ccc(F)cc2)nc1-c1ccccc1 | 2.54 µM
40 | Cc1nc2c(C(=O)Nc3ccc(N4CCCC(O)C4)cc3)snc2c(=O)[nH]1 (configuration not stated) | 4.46 µM
41 | CC(C)(O)c1ccccc1CC[C@@H](SCC1(CC(=O)O)CC1)c1cccc(/C=C/c2ccc3ccc(Cl)cc3n2)c1 | 1.44 µM
42 | O=Nc1c2cc(-c3ccccc3)[nH]nc-2c2ccccc12 | 6.43 µM
43 | CSc1ccccc1-c1n[nH]c(=S)o1 | > 5 µM (inactive)
44 | COc1ccc(CN2C(=O)c3ccccc3C(/C=N\OCc3ccc(C)cc3)C2=O)cc1 (configuration not stated) | 1.29 µM
45 | CCN(CC)S(=O)(=O)c1cccc(C(=O)Nc2nc3cc4c(cc3s2)OCCO4)c1 | 0.976 µM
46 | O=[N+]([O-])c1cc(C(F)(F)F)cc([N+](=O)[O-])c1NCCNC(=S)Nc1ccc(Cl)c(Cl)c1 | 1.12 µM
47 | CC(C)CCC(CCNCc1ccccn1)c1ccc(Cl)cc1 (configuration not stated) | 13.2 µM
48 | COc1ccc(O)c(-c2cc(-c3cccc(Br)c3)n[nH]2)c1 | 9.97 µM
49 | COc1ccccc1-n1c(SCC(=O)Nc2ccc(Br)cc2)nc(O)cc1=O | 10.3 µM
50 | O=C(NC(=S)N1CCN(c2ccc(F)cc2)CC1)C12CC3CC(CC(C3)C1)C2 | 11.1 µM
51 | CCN(CC)c1ccc(-c2nn3c(-c4ccccc4OC)nnc3s2)cc1 | 6.21 µM
52 | C[N+](C)(C)c1ccc(/C=N/Nc2nc(Cl)c(C#N)c(Cl)c2Cl)cc1 | > 15 µM (inactive)
